Our source for the IC50 values is patent US20190151312A1, “HEPARAN SULFATE BIOSYNTHESIS INHIBITORS FOR THE TREATMENT OF DISEASES” (BioMarin Pharmaceutical Inc., priority 2014, published 2019).

What is called pIC50 is the IC50 on a negative log10 scale, so that one unit is a factor of ten.

SMILES strings stand for the structures. pIC50: −log10 of the molar value. Where only a bound is given, the exact number is not on record here.

This test relates to GM01896 cells (MPS II dermal fibroblasts). The test can be described thus: Assay 1: MPS cellular assay, MPS II (heparan sulfate disaccharide biomarkers by LC-MS). It counts as cell-based, human. Particulars: Homo sapiens, Fibroblast, Assay 1 for MPS II, heparan sulfate disaccharide biomarkers (I2a4, I2a6, I2S0 and/or I2S6), read-out: IC50 Range. The procedure, abridged:
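MPS II patient dermal fibroblasts (GM01896) treated with compound at ≤30 μM for 4 to 21 days. Heparan sulfate GAGs isolated by anion exchange, digested with heparinases I-III, aniline-tagged against [13C6]aniline standards and quantified by LC-MS; IC50 from curve fitting. Viability monitored by alamar blue or ATP.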
`Cn1nc(Cl)c2ccc(-c3cc(Nc4ccc(Cl)cc4)nc(N4CCOCC4)n3)cc21` [[6-(3-chloro-1-methyl(1H-indazol-6-yl))-2-morpholin-4-ylpyrimidin-4-yl](4-chlorophenyl)amine]: the pIC50 was 5.30 to 6.00. Take `Cn1ncc2ccc(-c3cc(Nc4ccc(S(C)(=O)=O)cc4)nc(N4CCOCC4)n3)cc21` [1-{[6-(1-methyl(1H-indazol-6-yl))-2-morpholin-4-ylpyrimidin-4-yl]amino}-4-(methylsulfonyl)benzene]: the pIC50 was 5.30 to 6.00. As for `Clc1ccc(Nc2cc(-c3ccc4ncn(CCCN5CCOCC5)c4c3)nc(N3CCOCC3)n2)cc1` [(4-chlorophenyl){2-morpholin-4-yl-6-[1-(3-morpholin-4-ylpropyl)benzimidazol-6-yl]pyrimidin-4-yl}amine], the figure is 6.00 to 6.30; as for `Cc1nc2cc(-c3cc(Nc4ccc(Cl)cc4)nc(N4CCOCC4)n3)ccc2n1CCN1CCCC1` [(4-chlorophenyl){6-[2-methyl-1-(2-pyrrolidinylethyl)benzimidazol-5-yl]-2-morpholin-4-ylpyrimidin-4-yl}amine], 6.00 to 6.30. Turning to `Cn1ncc2ccc(-c3cc(Nc4ccc([S+](C)[O-])cc4)nc(N4CCOCC4)n3)cc21` (stereo not shown) [1-{[6-(1-methyl(1H-indazol-6-yl))-2-morpholin-4-ylpyrimidin-4-yl]amino}-4-(methylsulfinyl)benzene], the pIC50 was 5.30 to 6.00. On to `CN(C)CCc1nn(C)c2cc(-c3cc(Nc4ccc(Cl)cc4)nc(N4CCOCC4)n3)ccc12` [[2-(6-{6-[(4-chlorophenyl)amino]-2-morpholin-4-ylpyrimidin-4-yl}-1-methyl(1H-indazol-3-yl))ethyl]dimethylamine], for which the negative-log IC50 (pIC50) was 6.00 to 6.30. Regarding `Cn1nc(CCN2CCOCC2)c2ccc(-c3cc(Nc4ccc(Cl)cc4)nc(N4CCOCC4)n3)cc21` [(4-chlorophenyl){6-[1-methyl-3-(2-morpholin-4-ylethyl)(1H-indazol-6-yl)]-2-morpholin-4-ylpyrimidin-4-yl}amine], the pIC50 is 6.00 to 6.30.

For `Cc1nn(C)c2cc(-c3cc(Nc4ccc(-c5nnc[nH]5)cc4)nc(N4CCOCC4)n3)cnc12` [(4-(4H-1,2,4-triazol-3-yl)phenyl)[6-(1,3-dimethylpyrazolo[4,5-b]pyridin-6-yl)-2-morpholin-4-ylpyrimidin-4-yl]amine], the pIC50 is above 6.30. For `CNC(=O)c1ccc(Nc2cc(-c3ccc4cn(CC5CC5)nc4c3)nc(N3CCOCC3)n2)cn1` [[5-({6-[2-(cyclopropylmethyl)(2H-indazol-6-yl)]-2-morpholin-4-ylpyrimidin-4-yl}amino)(2-pyridyl)]-N-methylcarboxamide], the pIC50 is 5.30 to 6.00. For the molecule `Cc1nnc(-c2ccc(Nc3cc(-c4ccc5c(CCN6CCOCC6)nn(C)c5c4)nc(N4CCOCC4)n3)cc2)[nH]1` [[4-(5-methyl(4H-1,2,4-triazol-3-yl))phenyl]{6-[1-methyl-3-(2-morpholin-4-ylethyl)(1H-indazol-6-yl)]-2-morpholin-4-ylpyrimidin-4-yl}amine], the negative logarithm of the IC50 (pIC50) was above 6.30.

Turning to `CNC(=O)c1ccc(Nc2cc(-c3ccc4ncn(CC5CC5)c4c3)nc(N3CCOCC3)n2)cn1` [[5-({6-[1-(cyclopropylmethyl)benzimidazol-6-yl]-2-morpholin-4-ylpyrimidin-4-yl}amino)(2-pyridyl)]-N-methylcarboxamide], the pIC50 is above 6.30. Take `CNC(=O)c1ccc(Nc2cc(-c3ccc4cnn(CCCN5CCCC5)c4c3)nc(N3CCOCC3)n2)cc1` [N-methyl[4-({2-morpholin-4-yl-6-[1-(3-pyrrolidinylpropyl)(1H-indazol-6-yl)]pyrimidin-4-yl}amino)phenyl]carboxamide]: the pIC50 was above 6.30. Take `Cc1nn(C)c2cc(-c3cc(Nc4ccc(-n5nccn5)cc4)nc(N4CCOCC4)n3)ccc12` [[6-(1,3-dimethyl(1H-indazol-6-yl))-2-morpholin-4-ylpyrimidin-4-yl](4-(1,2,3-triazol-2-yl)phenyl)amine]: the pIC50 is above 6.30. As for `Clc1ccc(Nc2cc(-c3ccc4ncn(CC5CC5)c4c3)nc(N3CCOCC3)n2)cc1` [(4-chlorophenyl){6-[1-(cyclopropylmethyl)benzimidazol-6-yl]-2-morpholin-4-ylpyrimidin-4-yl}amine], the figure is 6.00 to 6.30. As to `Cc1nn(C)c2cc(-c3cc(Nc4ccc5nn(C)cc5c4)nc(N4CCOCC4)n3)ccc12` [[6-(1,3-dimethyl(1H-indazol-6-yl))-2-morpholin-4-ylpyrimidin-4-yl](2-methyl(2H-indazol-5-yl))amine], the pIC50 was 5.30 to 6.00. For `Cc1nn(C)c2cc(-c3cc(Nc4ccc(-c5[nH]ncc5F)cc4)nc(N4CCOCC4)n3)ccc12` [[6-(1,3-dimethyl(1H-indazol-6-yl))-2-morpholin-4-ylpyrimidin-4-yl][4-(4-fluoropyrazol-5-yl)phenyl]amine], the pIC50 is 6.00 to 6.30. Take `Cn1ncc2ccc(-c3cc(Nc4ccc5c(c4)nnn5C)nc(N4CCOCC4)n3)cc21` [[6-(1-methyl(1H-indazol-6-yl))-2-morpholin-4-ylpyrimidin-4-yl](1-methylbenzotriazol-5-yl)amine]: the pIC50 was 5.30 to 6.00. `COCCn1cnc2ccc(-c3cc(Nc4ccc(Cl)cc4)nc(N4CCOCC4)n3)cc21` [(4-chlorophenyl){6-[1-(2-methoxyethyl)benzimidazol-6-yl]-2-morpholin-4-ylpyrimidin-4-yl}amine]: the negative-log IC50 (pIC50) is 6.00 to 6.30. The result for `Cn1nc(CCN2CCOCC2)c2ccc(-c3cc(Nc4ccc(C#N)cc4)nc(N4CCOCC4)n3)cc21` [4-({6-[1-methyl-3-(2-morpholin-4-ylethyl)(1H-indazol-6-yl)]-2-morpholin-4-ylpyrimidin-4-yl}amino)benzenecarbonitrile] reads 5.30 to 6.00. As to `Cn1nc(CCN2CCOCC2)c2ccc(-c3cc(Nc4ccc5cc[nH]c5c4)nc(N4CCOCC4)n3)cc21` [indol-6-yl{6-[1-methyl-3-(2-morpholin-4-ylethyl)(1H-indazol-6-yl)]-2-morpholin-4-ylpyrimidin-4-yl}amine], the pIC50 is 6.00 to 6.30.

Turning to `Cn1c(N2CCCC2)nc2ccc(-c3cc(Nc4ccc(Cl)cc4)nc(N4CCOCC4)n3)cc21` [(4-chlorophenyl)[6-(1-methyl-2-pyrrolidinylbenzimidazol-6-yl)-2-morpholin-4-ylpyrimidin-4-yl]amine], the pIC50 was 5.30 to 6.00. For the molecule `Clc1ccc(Nc2cc(-c3ccc4[nH]ncc4c3)nc(N3CCOCC3)n2)cc1` [N-(4-chlorophenyl)-6-(1H-indazol-5-yl)-2-morpholinopyrimidin-4-amine], the pIC50 was 5.30 to 6.00. The result for `CNC(=O)c1ccc(Nc2cc(-c3ccc4nn(CC5CC5)cc4c3)nc(N3CCOCC3)n2)cn1` [[5-({6-[2-(cyclopropylmethyl)(2H-indazol-5-yl)]-2-morpholin-4-ylpyrimidin-4-yl}amino)(2-pyridyl)]-N-methylcarboxamide] reads 5.30 to 6.00; that for `Cc1nn(CCCN2CCCC2)c2cc(-c3cc(Nc4ccc(Cl)cc4)nc(N4CCOCC4)n3)ccc12` [(4-chlorophenyl){6-[3-methyl-1-(3-pyrrolidinylpropyl)(1H-indazol-6-yl)]-2-morpholin-4-ylpyrimidin-4-yl}amine], 6.00 to 6.30. As for `Cn1ncc2ccc(Nc3cc(-c4ccc5cnn(C)c5c4)nc(N4CCOCC4)n3)cc21` [(1-methyl(1H-indazol-6-yl))[6-(1-methyl(1H-indazol-6-yl))-2-morpholin-4-ylpyrimidin-4-yl]amine], the figure is 5.30 to 6.00. Consider `CNC(=O)c1ccc(Nc2cc(-c3ccc4c(c3)ncn4C3CC3)nc(N3CCOCC3)n2)cc1` [(4-{[6-(1-cyclopropylbenzimidazol-5-yl)-2-morpholin-4-ylpyrimidin-4-yl]amino}phenyl)-N-methylcarboxamide], for which the pIC50 was 6.00 to 6.30. Take `Clc1ccc(Nc2cc(-c3ccc4c(c3)ncn4C3COC3)nc(N3CCOCC3)n2)cc1` [(4-chlorophenyl)[2-morpholin-4-yl-6-(1-oxetan-3-ylbenzimidazol-5-yl)pyrimidin-4-yl]amine]: the pIC50 was 6.00 to 6.30. As for `Cc1nnc(-c2ccc(Nc3cc(-c4ccc5cnn(CCN6CCOCC6)c5c4)nc(N4CCOCC4)n3)cc2)[nH]1` [[4-(5-methyl(4H-1,2,4-triazol-3-yl))phenyl]{2-morpholin-4-yl-6-[1-(2-morpholin-4-ylethyl)(1H-indazol-6-yl)]pyrimidin-4-yl}amine], the pIC50 was above 6.30. Turning to `Cc1nc2ccc(-c3cc(Nc4ccc5ccn(C)c5c4)nc(N4CCOCC4)n3)cc2n1CC1CC1` [{6-[1-(cyclopropylmethyl)-2-methylbenzimidazol-6-yl]-2-morpholin-4-ylpyrimidin-4-yl}(1-methylindol-6-yl)amine], the pIC50 is above 6.30. Take `COc1cc(Nc2cc(-c3ccc4cnn(C)c4c3)nc(N3CCOCC3)n2)ccn1` [(2-methoxy(4-pyridyl))[6-(1-methyl(1H-indazol-6-yl))-2-morpholin-4-ylpyrimidin-4-yl]amine]: the negative logarithm of the IC50 (pIC50) is 6.00 to 6.30. As to `Cc1nn(CCCN(C)C)c2cc(-c3cc(Nc4ccc(Cl)cc4)nc(N4CCOCC4)n3)ccc12` [[3-(6-{6-[(4-chlorophenyl)amino]-2-morpholin-4-ylpyrimidin-4-yl}-3-methyl(1H-indazolyl))propyl]dimethylamine], the pIC50 was 6.00 to 6.30. Turning to `COCCn1ncc2ccc(-c3cc(Nc4ccc(C(=O)OC)cc4)nc(N4CCOCC4)n3)cc21` [methyl 4-({6-[1-(2-methoxyethyl)(1H-indazol-6-yl)]-2-morpholin-4-ylpyrimidin-4-yl}amino)benzoate], the pIC50 is 6.00 to 6.30. `Cc1cnn(-c2ccc(Nc3cc(-c4ccc5c(CCN6CCOCC6)nn(C)c5c4)nc(N4CCOCC4)n3)cc2)n1` [[4-(4-methyl(1,2,3-triazol-2-yl))phenyl]{6-[1-methyl-3-(2-morpholin-4-ylethyl)(1H-indazol-6-yl)]-2-morpholin-4-ylpyrimidin-4-yl}amine]: the negative logarithm of the IC50 (pIC50) was above 6.30.

`COc1cc(Nc2cc(-c3ccc4c(cnn4C)c3)nc(N3CCOCC3)n2)ccn1` [(2-methoxy(4-pyridyl))[6-(1-methyl(1H-indazol-5-yl))-2-morpholin-4-ylpyrimidin-4-yl]amine]: the pIC50 is 5.30 to 6.00.
